Where only a bound is given, the exact number is not on record here.

Test [1] addresses Ribosomal protein S6 kinase alpha-4 (Homo sapiens) (UniProt O75676). In words: Selectivity interaction (KinaseProfiler screening (Millipore)) EUB0000601a RPS6KA4. As to conditions: at 3 µM.
The target in test [2] is T1, Rhodopsin kinase GRK1 (Homo sapiens) (UniProt Q15835).
T1 sequence (whole entry): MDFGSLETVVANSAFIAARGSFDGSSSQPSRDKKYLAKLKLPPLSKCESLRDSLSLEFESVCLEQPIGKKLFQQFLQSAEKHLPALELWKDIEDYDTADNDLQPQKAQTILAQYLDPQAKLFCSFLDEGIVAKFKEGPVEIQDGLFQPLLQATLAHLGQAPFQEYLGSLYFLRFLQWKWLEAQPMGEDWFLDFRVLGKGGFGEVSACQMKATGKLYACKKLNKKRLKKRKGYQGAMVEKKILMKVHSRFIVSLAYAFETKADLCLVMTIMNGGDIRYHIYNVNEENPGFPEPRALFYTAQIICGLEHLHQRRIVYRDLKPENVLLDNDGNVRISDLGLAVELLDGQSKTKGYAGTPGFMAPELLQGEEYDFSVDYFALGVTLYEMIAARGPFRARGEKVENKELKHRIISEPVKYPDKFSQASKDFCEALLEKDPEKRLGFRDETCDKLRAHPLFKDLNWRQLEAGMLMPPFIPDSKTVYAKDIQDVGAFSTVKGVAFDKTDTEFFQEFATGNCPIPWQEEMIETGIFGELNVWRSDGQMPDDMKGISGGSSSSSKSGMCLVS
In words: Selectivity interaction (KinomeScan (DiscoverX)) EUB0000092b GRK1. As to conditions: at 10 µM.

Test [3] deals with Dual specificity protein kinase CLK1 (Homo sapiens, UniProt P49759). The test is described as follows: Selectivity interaction (KinomeScan (DiscoverX)) EUB0000655a CLK1. As to conditions: at 10 µM.
Dual specificity protein kinase CLK1, sequence (P49759 whole entry, looked up): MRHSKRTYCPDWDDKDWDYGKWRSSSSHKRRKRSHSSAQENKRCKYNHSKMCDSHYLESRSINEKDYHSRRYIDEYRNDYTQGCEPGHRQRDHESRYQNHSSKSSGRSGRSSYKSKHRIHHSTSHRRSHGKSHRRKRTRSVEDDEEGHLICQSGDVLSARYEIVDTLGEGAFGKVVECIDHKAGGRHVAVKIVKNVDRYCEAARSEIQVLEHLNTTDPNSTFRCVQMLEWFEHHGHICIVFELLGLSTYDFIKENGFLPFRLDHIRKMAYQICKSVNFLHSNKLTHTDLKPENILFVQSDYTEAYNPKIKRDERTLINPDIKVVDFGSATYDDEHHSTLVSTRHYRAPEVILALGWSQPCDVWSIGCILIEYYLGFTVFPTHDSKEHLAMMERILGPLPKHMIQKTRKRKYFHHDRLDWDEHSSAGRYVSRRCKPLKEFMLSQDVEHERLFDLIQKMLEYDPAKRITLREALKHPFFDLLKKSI
Test [4] deals with T2, Protein kinase C iota type (Homo sapiens) (UniProt P41743).
T2 sequence (whole entry): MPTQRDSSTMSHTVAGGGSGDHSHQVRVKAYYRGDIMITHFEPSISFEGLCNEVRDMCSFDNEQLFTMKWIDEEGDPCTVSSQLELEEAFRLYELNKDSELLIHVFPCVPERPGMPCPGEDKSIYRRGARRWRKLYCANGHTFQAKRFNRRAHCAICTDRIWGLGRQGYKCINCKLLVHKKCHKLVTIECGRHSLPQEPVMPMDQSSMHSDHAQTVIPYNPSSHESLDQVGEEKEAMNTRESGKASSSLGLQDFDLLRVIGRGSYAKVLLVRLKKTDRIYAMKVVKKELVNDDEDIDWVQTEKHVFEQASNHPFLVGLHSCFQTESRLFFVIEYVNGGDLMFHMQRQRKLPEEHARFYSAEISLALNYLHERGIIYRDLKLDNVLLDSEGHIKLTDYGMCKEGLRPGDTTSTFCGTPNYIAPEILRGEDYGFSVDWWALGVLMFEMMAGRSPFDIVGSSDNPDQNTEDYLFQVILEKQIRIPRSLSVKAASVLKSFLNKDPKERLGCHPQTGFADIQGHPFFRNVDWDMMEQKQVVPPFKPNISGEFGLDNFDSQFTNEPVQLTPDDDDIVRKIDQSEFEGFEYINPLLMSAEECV
In words: Selectivity interaction (KinomeScan (DiscoverX)) EUB0000655a PRKCI. As to conditions: at 10 µM.

Test [5] deals with Protein arginine N-methyltransferase 7 (Homo sapiens, UniProt Q9NVM4). In words: Selectivity interaction (Scintillation proximity assays) EUB0000230b PRMT7.
Protein arginine N-methyltransferase 7, sequence (Q9NVM4 whole entry): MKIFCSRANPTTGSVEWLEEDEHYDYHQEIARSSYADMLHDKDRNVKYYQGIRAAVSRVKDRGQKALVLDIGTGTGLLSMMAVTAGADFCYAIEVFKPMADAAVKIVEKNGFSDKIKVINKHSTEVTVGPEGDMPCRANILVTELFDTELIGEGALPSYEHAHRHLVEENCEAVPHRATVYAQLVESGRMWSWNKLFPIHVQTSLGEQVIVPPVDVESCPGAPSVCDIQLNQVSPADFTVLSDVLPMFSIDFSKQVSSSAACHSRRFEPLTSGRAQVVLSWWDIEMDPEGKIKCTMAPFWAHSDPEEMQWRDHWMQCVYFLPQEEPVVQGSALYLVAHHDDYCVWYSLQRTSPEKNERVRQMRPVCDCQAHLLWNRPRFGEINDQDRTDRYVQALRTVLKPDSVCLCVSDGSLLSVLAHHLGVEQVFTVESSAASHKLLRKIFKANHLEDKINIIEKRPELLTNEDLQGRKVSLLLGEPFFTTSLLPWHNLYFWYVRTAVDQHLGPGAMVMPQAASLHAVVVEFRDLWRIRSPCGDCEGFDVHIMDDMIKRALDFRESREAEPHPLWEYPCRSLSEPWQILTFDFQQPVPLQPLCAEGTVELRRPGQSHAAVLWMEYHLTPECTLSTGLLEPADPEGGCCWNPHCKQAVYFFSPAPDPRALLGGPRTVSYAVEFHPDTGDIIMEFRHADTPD
Test [6] has as its target Calcium/calmodulin-dependent protein kinase type 1D (Homo sapiens) (UniProt Q8IU85). In words: Selectivity interaction (ActivX KiNativ screen (kinase selectivity in THP-1 cell lysates)) EUB0000639a CAMK1D. The note with it: lysate. Type of test: subcellular.
The target in test [7] is T3, Inhibitor of nuclear factor kappa-B kinase subunit beta (Homo sapiens) (UniProt O14920).
T3 sequence (whole entry): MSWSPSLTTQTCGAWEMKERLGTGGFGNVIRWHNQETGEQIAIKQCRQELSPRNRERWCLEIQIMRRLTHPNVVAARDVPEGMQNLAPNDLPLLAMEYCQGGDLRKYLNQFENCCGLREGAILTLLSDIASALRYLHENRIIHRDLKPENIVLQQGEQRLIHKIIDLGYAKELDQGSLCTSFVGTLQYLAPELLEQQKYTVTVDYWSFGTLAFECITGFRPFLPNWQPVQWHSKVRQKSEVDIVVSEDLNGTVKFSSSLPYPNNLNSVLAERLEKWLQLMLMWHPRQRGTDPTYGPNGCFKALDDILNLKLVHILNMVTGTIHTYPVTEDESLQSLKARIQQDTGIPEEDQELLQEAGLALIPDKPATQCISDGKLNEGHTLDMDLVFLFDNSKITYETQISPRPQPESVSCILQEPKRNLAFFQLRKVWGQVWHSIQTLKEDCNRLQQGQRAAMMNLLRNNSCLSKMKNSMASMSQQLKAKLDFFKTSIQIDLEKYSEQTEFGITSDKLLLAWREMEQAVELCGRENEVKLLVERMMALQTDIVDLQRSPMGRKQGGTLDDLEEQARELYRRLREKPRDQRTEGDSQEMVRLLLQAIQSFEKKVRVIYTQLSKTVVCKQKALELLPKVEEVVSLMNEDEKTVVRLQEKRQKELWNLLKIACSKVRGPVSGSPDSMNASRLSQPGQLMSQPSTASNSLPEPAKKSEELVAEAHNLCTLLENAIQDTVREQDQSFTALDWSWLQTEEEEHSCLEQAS
In words: Selectivity interaction (ActivX KiNativ screen (kinase selectivity in THP-1 cell lysates)) EUB0000639a IKBKB. As to conditions: lysate, at 0.01 µM. The format is subcellular.

Test [8] has as its target Tyrosine-protein kinase SYK (Homo sapiens, UniProt P43405). In words: Selectivity interaction (KinomeScan (DiscoverX)) EUB0000229b SYK. The note with it: at 10 µM.
The target in test [9] is Receptor-interacting serine/threonine-protein kinase 2 (Homo sapiens, UniProt O43353). The test is described as follows: Selectivity interaction (KinomeScan (DiscoverX)) EUB0001619a RIPK2. As to conditions: at 1 µM.
Receptor-interacting serine/threonine-protein kinase 2, sequence (O43353 whole entry): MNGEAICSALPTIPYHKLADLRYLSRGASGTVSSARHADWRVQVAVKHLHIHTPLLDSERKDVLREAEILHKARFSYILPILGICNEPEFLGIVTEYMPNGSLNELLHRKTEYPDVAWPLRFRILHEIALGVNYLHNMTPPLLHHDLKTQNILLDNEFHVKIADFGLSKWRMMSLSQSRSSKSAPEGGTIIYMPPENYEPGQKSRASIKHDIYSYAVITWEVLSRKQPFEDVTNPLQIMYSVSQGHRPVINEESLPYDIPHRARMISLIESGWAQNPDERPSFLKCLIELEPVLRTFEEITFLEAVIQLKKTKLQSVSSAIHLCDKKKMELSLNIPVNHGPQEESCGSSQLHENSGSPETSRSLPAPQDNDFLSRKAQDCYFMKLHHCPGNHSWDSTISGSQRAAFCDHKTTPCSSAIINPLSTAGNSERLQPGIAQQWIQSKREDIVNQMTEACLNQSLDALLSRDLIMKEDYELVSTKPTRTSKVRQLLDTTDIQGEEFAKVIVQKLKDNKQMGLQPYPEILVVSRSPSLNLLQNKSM

Calcium/calmodulin-dependent protein kinase type 1D (Homo sapiens), sequence (Q8IU85 whole entry, looked up): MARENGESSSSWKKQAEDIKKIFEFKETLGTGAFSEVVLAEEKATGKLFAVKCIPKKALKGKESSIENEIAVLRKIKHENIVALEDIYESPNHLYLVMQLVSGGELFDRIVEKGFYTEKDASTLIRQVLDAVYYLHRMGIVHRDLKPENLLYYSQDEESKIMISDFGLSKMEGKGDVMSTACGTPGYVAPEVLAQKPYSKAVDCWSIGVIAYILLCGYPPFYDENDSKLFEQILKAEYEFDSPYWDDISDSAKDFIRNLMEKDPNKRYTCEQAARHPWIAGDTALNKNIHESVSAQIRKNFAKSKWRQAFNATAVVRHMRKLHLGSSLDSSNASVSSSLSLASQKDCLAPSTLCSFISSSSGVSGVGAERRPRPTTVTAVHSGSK
Ribosomal protein S6 kinase alpha-4 (Homo sapiens), sequence (O75676 whole entry, looked up): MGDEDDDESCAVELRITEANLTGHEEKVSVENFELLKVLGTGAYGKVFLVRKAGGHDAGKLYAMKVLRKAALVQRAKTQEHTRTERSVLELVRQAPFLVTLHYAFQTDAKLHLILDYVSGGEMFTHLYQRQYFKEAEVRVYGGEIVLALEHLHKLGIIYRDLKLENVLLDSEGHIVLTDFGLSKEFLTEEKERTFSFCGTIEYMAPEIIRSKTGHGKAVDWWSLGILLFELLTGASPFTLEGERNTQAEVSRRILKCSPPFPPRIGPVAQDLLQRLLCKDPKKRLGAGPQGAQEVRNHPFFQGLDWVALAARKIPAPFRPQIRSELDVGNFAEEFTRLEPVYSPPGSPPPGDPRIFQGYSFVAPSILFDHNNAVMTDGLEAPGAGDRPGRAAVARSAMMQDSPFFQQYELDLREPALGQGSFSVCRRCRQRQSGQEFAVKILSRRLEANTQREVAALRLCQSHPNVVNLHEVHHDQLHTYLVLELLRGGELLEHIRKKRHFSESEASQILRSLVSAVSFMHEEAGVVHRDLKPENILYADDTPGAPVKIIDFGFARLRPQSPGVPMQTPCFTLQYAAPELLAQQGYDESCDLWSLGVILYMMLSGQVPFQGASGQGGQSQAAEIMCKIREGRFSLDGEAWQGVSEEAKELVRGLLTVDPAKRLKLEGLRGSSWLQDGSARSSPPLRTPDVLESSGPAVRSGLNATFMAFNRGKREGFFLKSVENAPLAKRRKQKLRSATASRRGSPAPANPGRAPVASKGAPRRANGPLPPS

Regarding `CCc1cc(Nc2nccc(-c3c(-c4ccc(OC)c(C(=O)Nc5c(F)cccc5F)c4)nc4ccccn34)n2)c(OC)cc1N1CCC(N2CCN(S(C)(=O)=O)CC2)CC1`, the % of inhibition in [1] was 55%.
Compound `CCC(=O)N1CCN(c2ccc(-n3c(=O)ccc4cnc5ccc(-c6cnc7ccccc7c6)cc5c43)cc2C(F)(F)F)CC1` yielded a % of control in test [2] of 99%.
Consider `CN(C)CCOc1ccc(-c2nc(-c3ccncc3)c(-c3ccc4c(c3)CC/C4=N\O)[nH]2)cc1`, for which the % of control in test [3] turned out to be 77%; in test [4], 80%.
What is called IC50 is the concentration that gives 50% inhibition. In the case of `CNCCN1CCC(c2cc(CN(C)C(=O)c3cccc(Oc4ccccc4)c3)ccn2)CC1`, in [5], the IC50 is > 10 µM.
In the case of `CC[C@@H]1[C@H](F)C(=O)N[C@@H]1COc1nccc2cc(C(N)=O)c(OC)cc12` [ZIMLOVISERTIB], the % of inhibition in test [6] (at 0.01 µM) is 7.8%; in test [6] (at 0.04 µM), 5.4%; in test [6] (at 0.2 µM), 9.3%; in test [6] (at 1 µM), 18.4%; in test [6] (at 5 µM) it was 34.3%; in test [7], -4.2%.
`COc1cc(N(C)c2ccnc3ccc(C(F)(F)F)cc23)cc(OC)c1OC`: the % binding in [8] was found to be 94%.
Regarding `N#Cc1cccc(-c2c[nH]c3ncnc(N4CCOCC4)c23)c1`, in [9], the % of control worked out at 84%.

The values above are taken from ChEMBL document CHEMBL5465560, “Selectivity Literature for EUbOPEN Chemogenomic Library” (2024).
